Assay results from PMC4872774, “DYRK1B as therapeutic target in Hedgehog/GLI-dependent cancer cells with Smoothened inhibitor resistance” (Oncotarget, 2016).

Target: Dual-Specificity-Tyrosine-Phosphorylation-Regulated Kinase 1B (DYRK1B) (Homo sapiens, UniProt Q9Y463)
Assay: radiometric […]-ATP kinase assay with recombinant DYRK1B and DYRKtide substrate ([…] ATP)
Assay type: biochemical

Chain of Dual-Specificity-Tyrosine-Phosphorylation-Regulated Kinase 1B (DYRK1B) (Q9Y463 whole entry): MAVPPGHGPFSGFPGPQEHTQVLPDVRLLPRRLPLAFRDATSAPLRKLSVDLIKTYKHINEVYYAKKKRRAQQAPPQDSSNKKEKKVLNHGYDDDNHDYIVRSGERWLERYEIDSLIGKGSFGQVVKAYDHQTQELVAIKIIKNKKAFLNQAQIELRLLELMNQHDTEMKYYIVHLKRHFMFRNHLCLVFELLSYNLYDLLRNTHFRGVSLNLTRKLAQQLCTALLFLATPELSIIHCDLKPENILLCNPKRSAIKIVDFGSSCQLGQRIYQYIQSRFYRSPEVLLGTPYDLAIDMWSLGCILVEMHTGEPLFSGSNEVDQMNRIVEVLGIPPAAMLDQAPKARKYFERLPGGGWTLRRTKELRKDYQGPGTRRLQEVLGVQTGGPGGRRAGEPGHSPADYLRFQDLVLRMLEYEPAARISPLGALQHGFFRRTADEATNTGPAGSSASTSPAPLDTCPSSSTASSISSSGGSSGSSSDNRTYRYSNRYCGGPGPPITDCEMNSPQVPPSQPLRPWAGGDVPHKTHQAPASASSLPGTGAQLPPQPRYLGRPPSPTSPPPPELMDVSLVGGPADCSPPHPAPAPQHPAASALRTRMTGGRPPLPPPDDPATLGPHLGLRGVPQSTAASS

IC50: 90 nM
Structure (SMILES): O=C(Nc1nc2cc(C(F)(F)F)ccc2[nH]1)c1csc(-c2ccc3c(c2)CCO3)n1 [DYRKi]
